In paper PMC12340956, “Tranylcypromine-Based LSD1 Inhibitors as Useful Agents to Reduce Viability of” (ACS Infectious Diseases, 2025):
Like-named read-outs stand apart in the source and are kept apart here.

Legend:
[1] = MTT cytotoxicity in MRC-5 cells; type: cell-based; conditions: human, MRC-5 lung diploid fibroblast cells; for viability at 72 h, 5 µM / viability at 72 h, 10 µM / viability at 72 h, 25 µM / viability at 72 h, 50 µM: read-out: percentage of viability, 72 h; for IC50 at 72 h: read-out: IC50 (cell viability)
Method: (§1) The MTT method was used to evaluate cell viability after 72 h of treatment.
(§2) Human commercial lung diploid fibroblasts (MRC-5), and diploid retinal epithelium cells (RPE) were obtained from the American Type Culture Collection (ATCC) and kindly provided by Dr Francesca Degrassi (CNR IBPM) and maintained in minimal essential medium or DMEM-F12 medium supplemented with fetal calf serum, antibiotics, and nonessential amino acids. Cells were grown at 37 °C, in a humidified atmosphere, with 5% CO2. For experiments, cells were seeded in 200 μL of complete in each well of a 96-well microtiter plate. After 24 h, compounds were added at 5, 10, 25, and 50 μM for 72 h in sextuplicate. MTT was added (0.5 mg/mL), incubated for 4 h at 37 °C, and dissolved in 200 μL of isopropyl alcohol. Absorbance was measured at 570 nm (ELISA reader, DASIT), and cell viability was calculated as viability=(ODoftreatedcells/ODofcontrolcells)×100

[2] = system: newly transformed schistosomula (NTS); assay: NTS viability phenotypic screening, 72 h; conditions: for IC50: Schistosoma mansoni, read-out: IC50 (NTS viability)
Method: (§4) For NTS and adult worms, transparent flat-bottom 96- and 24-well plates were used, respectively (Sarstedt, Switzerland). For juvenile worms, 48-well plates were used with 3–6 worms per plate and RPMI medium with 5% FCS and 1% penicillin/streptomycin. Compounds were initially tested at 20 and 10 μM in triplicate on NTS and repeated once; each well contained 30–40 NTS. Phenotypic reference points such as motility, morphology, and granularity were used to score incubated parasites’ overall viability (scores from 0 to 3). […] Identified hits from the NTS screening were tested on adult worms. […] The experiment was conducted in duplicate and repeated; standard deviations were calculated from two wells. […] For all in vitro assays, negative controls (DMSO at the highest tested concentration) were included.

[3] = biological target: T1, human LSD1-CoREST complex (Homo sapiens, UniProt O60341); assay: HRP-coupled LSD1 inhibition assay; type: biochemical; conditions: 10 min preincubation; for IC50: read-out: IC50 (hLSD1 direct inhibition)
T1 construct: made in house
Method: Protein expression, thermal stability, and inhibition of human LSD1-CoREST were performed using established protocols. […] The reaction was initiated by adding an equal volume of the substrate solution to the enzyme–inhibitor mixture, and resorufin fluorescence (excitation at 530–570 nm and emission at 580–590 nm) was detected with a Clariostar plate reader.

[4] = biological target: T1, human LSD1-CoREST complex; assay: ThermoFAD thermal stability assay; type: binding; conditions: LSD1-CoREST thermal stability
Method: Compounds 14–22 were tested against the human LSD1-CoREST complex to determine their inhibitory activity. […] ThermoFAD assays were then performed to assess the impact of 14–22 on the thermal stability (ΔT m values, Table ) of the LSD1-CoREST complex. The most significant shifts in Tm values corresponded to the strongest binders. […] Compound 22 was not tested, considering its previous negative results.
Protein expression, thermal stability, and inhibition of human LSD1-CoREST were performed using established protocols. […] LSD1-CoREST (0.4 μM) was preincubated with the inhibitor at 25 °C for 10 min in the presence of 5% DMSO. The reaction was initiated by adding an equal volume of the substrate solution to the enzyme–inhibitor mixture, and resorufin fluorescence (excitation at 530–570 nm and emission at 580–590 nm) was detected with a Clariostar plate reader.

adult worms [5] = assay: Adult worm viability phenotypic assay, 72 h; conditions: Schistosoma mansoni, read-out: IC50 (adult worm viability)
Method: The life cycle is maintained at the Swiss TPH as described previously. Cercariae were obtained from infected snails by exposing them to a strong light source for 3–4 h in pond water.
as §4

[6] = system: S. mansoni juvenile forms; assay: Speed-of-action assay in juvenile forms; type: cell-based, Schistosoma mansoni; conditions: for IC50: Schistosoma mansoni, read-out: IC50 (speed of action, juvenile forms); for Percentage of effect: juvenile forms
Description: (§3) To better characterize a selection of our LSD1i in vitro, we assessed the onset of their action, defined as the time required for an observable antischistosomal effect. […] For detailed percentages of activity at each time point, refer to the Supporting Information (Tables S2 and S3 in Supporting Information).

adult worms [7] = assay: Pairing and egg laying of adult worms; type: cell-based, Schistosoma mansoni; conditions: for eggs' number: 20 μM; for effect on worm pairing: adult worms
Method: Selected compounds 2, 15, 18, and 19 were tested on adult worms to evaluate their effects on pairing and egg laying.

NTS = assay: Speed-of-action assay in NTS; type: cell-based, Schistosoma mansoni; conditions: for Percentage of effect: NTS; for IC50: Schistosoma mansoni, read-out: IC50 (speed of action, NTS)
Description: as §3

[8] = MTT cytotoxicity in RPE cells; type: cell-based; conditions: human, retinal pigment epithelial (RPE) cells; for viability at 72 h, 5 µM / viability at 72 h, 10 µM / viability at 72 h, 25 µM / viability at 72 h, 50 µM: read-out: percentage of viability, 72 h; for IC50 at 72 h: read-out: IC50 (cell viability)
Method: as §1, §2

CCCc1ccc(C(=O)Nc2ccc(C3CC3N)cc2)cc1.Cl (stereo not drawn) [Compound 15, N-(4-(2-Aminocyclopropyl)phenyl)-4-propylbenzamide Hydrochloride]
viability at 72 h, 5 µM [1]: 81 ± 16%
viability at 72 h, 10 µM [1]: 91 ± 20%
viability at 72 h, 25 µM [1]: 89 ± 17%
viability at 72 h, 50 µM [1]: 92 ± 20%
IC50 at 72 h [1]: > 100 µM
Percentage of reduction of NTS viability, 72 h ([2]; 1 μM): 30.2 ± 1.9%
Percentage of reduction of NTS viability, 72 h ([2]; 10 μM): 87.5 ± 4.2%
Percentage of reduction of NTS viability, 72 h ([2]; 20 μM): 100 ± 0.0%
IC50 [2]: 1.72 µM
IC50 [3]: 0.12 ± 0.02 µM
ΔTm [4]: +9.5 °C
IC50 (adult worms [5]): > 10 µM
IC50 ([6]; 4 h): > 20 µM
IC50 ([6]; 24 h): > 20 µM
IC50 ([6]; 48 h): > 20 µM
IC50 ([6]; 72 h): 4.3 µM
Percentage of effect ([6]; 4 h, 1 μM): 23.33%
Percentage of effect ([6]; 4 h, 10 μM): 33.33%
Percentage of effect ([6]; 4 h, 20 μM): 45.45%
Percentage of effect ([6]; 24 h, 1 μM): 24.14%
Percentage of effect ([6]; 24 h, 10 μM): 34.48%
Percentage of effect ([6]; 24 h, 20 μM): 48.08%
Percentage of effect ([6]; 48 h, 1 μM): 34.62%
Percentage of effect ([6]; 48 h, 10 μM): 42.31%
Percentage of effect ([6]; 48 h, 20 μM): 50%
Percentage of effect ([6]; 72 h, 1 μM): 40.96%
Percentage of effect ([6]; 72 h, 10 μM): 44.55%
Percentage of effect ([6]; 72 h, 20 μM): 70.83%
eggs' number (adult worms [7]; 4 h): 0
eggs' number (adult worms [7]; 8 h): 0
eggs' number (adult worms [7]; 24 h): 0
eggs' number (adult worms [7]; 48 h): 0
eggs' number (adult worms [7]; 72 h): 8
effect on worm pairing (adult worms [7]): no impact on worm pairing
Percentage of effect (NTS; 4 h, 10 μM): 21.15%
Percentage of effect (NTS; 4 h, 20 μM): 38.46%
Percentage of effect (NTS; 24 h, 10 μM): 50%
Percentage of effect (NTS; 24 h, 20 μM): 57.14%
Percentage of effect (NTS; 48 h, 10 μM): 51.02%
Percentage of effect (NTS; 48 h, 20 μM): 91.84%
Percentage of effect (NTS; 72 h, 10 μM): 71.43%
Percentage of effect (NTS; 72 h, 20 μM): 100%
IC50 (NTS; 4 h): > 20 µM
IC50 (NTS; 24 h): 10 µM
IC50 (NTS; 48 h): 9.9 µM
IC50 (NTS; 72 h): 9.3 µM
viability at 72 h, 5 µM [8]: 89 ± 3%
viability at 72 h, 10 µM [8]: 104 ± 12%
viability at 72 h, 25 µM [8]: 99 ± 6%
viability at 72 h, 50 µM [8]: 106 ± 17%
IC50 at 72 h [8]: > 100 µM

C#Cc1cccc(C(=O)Nc2ccc(C3CC3N)cc2)c1.Cl (stereo not drawn) [Compound 16, N-(4-(2-Aminocyclopropyl)phenyl)-3-ethynylbenzamide Hydrochloride]
Percentage of reduction of NTS viability, 72 h ([2]; 10 μM): 31.2 ± 6.3%
Percentage of reduction of NTS viability, 72 h ([2]; 20 μM): 77.8 ± 2.1%
IC50 [2]: > 10 µM
IC50 [3]: 0.07 ± 0.02 µM
ΔTm [4]: +10 °C
IC50 (adult worms [5]): > 20 µM

CC#Cc1ccc(C(=O)Nc2ccc(C3CC3N)cc2)cc1.Cl (stereo not drawn) [Compound 18, N-(4-(2-Aminocyclopropyl)phenyl)-4-(prop-1-yn-1-yl)benzamide Hydrochloride]
viability at 72 h, 5 µM [1]: 111 ± 10%
viability at 72 h, 10 µM [1]: 75 ± 15%
viability at 72 h, 25 µM [1]: 98 ± 14%
viability at 72 h, 50 µM [1]: 75 ± 12%
IC50 at 72 h [1]: > 100 µM
Percentage of reduction of NTS viability, 72 h ([2]; 1 μM): 22.6 ± 1.9%
Percentage of reduction of NTS viability, 72 h ([2]; 10 μM): 95.8 ± 4.2%
Percentage of reduction of NTS viability, 72 h ([2]; 20 μM): 100 ± 0.0%
IC50 [2]: 1.76 µM
IC50 [3]: 0.13 ± 0.02 µM
ΔTm [4]: +8 °C
IC50 (adult worms [5]): > 10 µM
IC50 ([6]; 4 h): > 20 µM
IC50 ([6]; 24 h): > 20 µM
IC50 ([6]; 48 h): > 20 µM
IC50 ([6]; 72 h): 3.8 µM
Percentage of effect ([6]; 4 h, 1 μM): 20%
Percentage of effect ([6]; 4 h, 10 μM): 20%
Percentage of effect ([6]; 4 h, 20 μM): 43.64%
Percentage of effect ([6]; 24 h, 1 μM): 24.14%
Percentage of effect ([6]; 24 h, 10 μM): 31.03%
Percentage of effect ([6]; 24 h, 20 μM): 46.15%
Percentage of effect ([6]; 48 h, 1 μM): 34.62%
Percentage of effect ([6]; 48 h, 10 μM): 42.31%
Percentage of effect ([6]; 48 h, 20 μM): 47.92%
Percentage of effect ([6]; 72 h, 1 μM): 42.81%
Percentage of effect ([6]; 72 h, 10 μM): 44.77%
Percentage of effect ([6]; 72 h, 20 μM): 70.83%
eggs' number (adult worms [7]; 4 h): 0
eggs' number (adult worms [7]; 8 h): 0
eggs' number (adult worms [7]; 24 h): 0
eggs' number (adult worms [7]; 48 h): 0
eggs' number (adult worms [7]; 72 h): 2
effect on worm pairing (adult worms [7]): no impact on worm pairing
Percentage of effect (NTS; 4 h, 10 μM): 26.92%
Percentage of effect (NTS; 4 h, 20 μM): 30.77%
Percentage of effect (NTS; 24 h, 10 μM): 51.79%
Percentage of effect (NTS; 24 h, 20 μM): 75%
Percentage of effect (NTS; 48 h, 10 μM): 81.63%
Percentage of effect (NTS; 48 h, 20 μM): 87.76%
Percentage of effect (NTS; 72 h, 20 μM): 100%
IC50 (NTS; 4 h): > 20 µM
IC50 (NTS; 24 h): 6.9 µM
IC50 (NTS; 48 h): 4.4 µM
IC50 (NTS; 72 h): 2.4 µM
viability at 72 h, 5 µM [8]: 82 ± 21%
viability at 72 h, 10 µM [8]: 86 ± 36%
viability at 72 h, 25 µM [8]: 104 ± 20%
viability at 72 h, 50 µM [8]: 95 ± 2%
IC50 at 72 h [8]: > 100 µM

Cl.NC1CC1c1ccc(NC(=O)c2ccc(C#Cc3ccccc3)cc2)cc1 (stereo not drawn) [Compound 20, N-(4-(2-Aminocyclopropyl)phenyl)-4-(phenylethynyl)benzamide Hydrochloride]
Percentage of reduction of NTS viability, 72 h ([2]; 10 μM): 29.2 ± 0.0%
Percentage of reduction of NTS viability, 72 h ([2]; 20 μM): 77.8 ± 2.1%
IC50 [2]: > 10 µM
IC50 (hLSD1 direct inhibition) [3]: single-digit μM inhibition
IC50 [3]: 4.02 ± 0.41 µM
ΔTm [4]: +8 °C
IC50 (adult worms [5]): > 20 µM
